We go through eight molecules from patent publication US11045449B2, “3-(5-fluoroindolyl)-4-arylmaleimide compounds and their use in tumor treatment” (JOHANNES GUTENBERG-UNIVERSITÄT MAINZ, priority 2015, dated 2021).

Data set [1] in a line: metabolic conversion in rat liver microsomes. As to conditions: 40 μM compound, 37° C., pH 7.4, RP-HPLC-MS/MS. In kind it is in vitro ADME. The protocol:
In a further experiment the metabolic conversion of compounds (Ia) and (IIa) was evaluated according to the following procedure:
The test compounds were incubated in the reaction mixture given below with rat liver microsomes (Corning). For this purpose the reaction mixture (components 1-5, see below) was preincubated for 10 minutes at 37° C. The reaction was started with the addition of 10 μl of the test compound followed by incubation at 37° C. for 0-300 minutes, respectively. At each time point, 50 μl of the mixture were removed, added to 250 μl of ice cold acetonitrile and vortexed immediately. After centrifugation, the acetonitrile solution was analyzed by RP-HPLC-MS/MS system.
1. Magnesiumchloride hexahydrate 50 μl
2. Glucose-6-phosphate 50 μl
4. Glucose-6-phosphate-dehydrogenase: 10 μl
6. Compounds: 40 μM (10 μl of 4 mM solution in ethanol)
Total volume: 1000 μl in 0.1 M Trizma-buffer (pH 7.4 at 37° C.)
Acquity UPLC®-Quattro Premier XE (MS) system by Waters
Column: BEH C18, 2.1×50 mm, 1.2 μm pore diameter, Waters
Solvent A: H2O, NH4-formiate 2 mM+0.1% formic acid
Solvent B: Methanol, NH4-formiate 2 mM+0.1% formic acid
Flow regime: from 70% solvent A/30% solvent B to 100% Solvent A in 2.4 minutes, then 70% solvent A/30% solvent B for 0.8 minutes.

For the next data set, the target named is GSK-3β (Homo sapiens, UniProt P49841). The data set is described as follows: KinaseProfiler protein kinase inhibition, GSK-3β. It counts as biochemical. The protocol: (§1) The effect of test compounds on the activity of the protein kinases GSK-3β, VEGFR-2 and FLT-3 was evaluated based on half maximal inhibitory concentration (IC50) values determined by Eurofins Pharma Discovery Services UK Limited, Gemini Crescent, Dundee Technology Park, Dundee, DD2 1SW (KinaseProfiler™). Detailed information can be found at: http://www.eurofins.com/pharma-services/pharma-discovery-services/services/in-vitro-pharmacology/kinases/biochemical.aspx. The assays are also described in Biochem. J. (2013) 451, 313-328.

The next data set concerns the target T1, VEGFR-2 (Homo sapiens, UniProt P35968).
T1 construct: purchased Eurofins Pharma Discovery Services UK Limited (KinaseProfiler)
Put plainly: KinaseProfiler protein kinase inhibition, VEGFR-2. In kind it is biochemical. An excerpt:
Detailed information can be found at: http://www.eurofins.com/pharma-services/pharma-discovery-services/services/in-vitro-pharmacology/kinases/biochemical.aspx. The assays are also described in Biochem. J. (2013) 451, 313-328.

The target in a further data set is T2, FLT-3 (Homo sapiens, UniProt P36888).
T2 construct: purchased Eurofins Pharma Discovery Services UK Limited (KinaseProfiler)
T2 sequence (P36888 27-993): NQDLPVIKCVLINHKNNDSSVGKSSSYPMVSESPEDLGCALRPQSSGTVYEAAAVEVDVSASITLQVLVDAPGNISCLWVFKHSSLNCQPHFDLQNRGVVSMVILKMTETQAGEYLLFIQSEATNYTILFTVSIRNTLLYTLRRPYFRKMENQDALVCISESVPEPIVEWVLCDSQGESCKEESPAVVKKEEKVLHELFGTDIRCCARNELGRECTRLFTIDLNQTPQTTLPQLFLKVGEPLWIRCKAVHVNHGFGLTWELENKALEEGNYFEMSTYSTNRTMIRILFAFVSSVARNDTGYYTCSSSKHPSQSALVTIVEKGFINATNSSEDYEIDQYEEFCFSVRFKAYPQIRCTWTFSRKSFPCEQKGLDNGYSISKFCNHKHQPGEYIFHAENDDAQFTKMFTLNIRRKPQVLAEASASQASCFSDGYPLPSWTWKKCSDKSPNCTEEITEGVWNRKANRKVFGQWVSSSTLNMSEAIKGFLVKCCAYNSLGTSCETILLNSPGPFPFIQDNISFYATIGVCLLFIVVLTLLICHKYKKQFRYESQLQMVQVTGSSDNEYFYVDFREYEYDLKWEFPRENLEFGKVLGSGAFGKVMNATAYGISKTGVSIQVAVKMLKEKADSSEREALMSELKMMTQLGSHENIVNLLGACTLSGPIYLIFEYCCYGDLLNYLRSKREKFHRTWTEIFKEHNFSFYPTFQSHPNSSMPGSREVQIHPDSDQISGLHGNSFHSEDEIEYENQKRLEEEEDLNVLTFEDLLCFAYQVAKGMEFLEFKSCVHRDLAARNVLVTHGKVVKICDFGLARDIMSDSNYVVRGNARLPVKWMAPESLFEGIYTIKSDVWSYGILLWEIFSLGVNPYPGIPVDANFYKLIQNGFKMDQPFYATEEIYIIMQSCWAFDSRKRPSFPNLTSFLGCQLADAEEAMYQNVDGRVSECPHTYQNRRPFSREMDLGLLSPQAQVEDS
The data set is described as follows: KinaseProfiler protein kinase inhibition, FLT-3. It counts as biochemical. How it is done: as §1

In data set [2] the test system is HT-29 human colon adenocarcinoma cells. The data set is described as follows: MTT assay, antiproliferative activity. It counts as cell-based. The note with it: HT-29 cells, 3 days exposure, FIG. 3. The source says:
Each experiment was done in triplicate.
(Formazan colour is commonly taken as a measure of viable cells.)

Where a name gives a salt, the structure may show the parent alone.

T1 sequence (P35968 20-1356): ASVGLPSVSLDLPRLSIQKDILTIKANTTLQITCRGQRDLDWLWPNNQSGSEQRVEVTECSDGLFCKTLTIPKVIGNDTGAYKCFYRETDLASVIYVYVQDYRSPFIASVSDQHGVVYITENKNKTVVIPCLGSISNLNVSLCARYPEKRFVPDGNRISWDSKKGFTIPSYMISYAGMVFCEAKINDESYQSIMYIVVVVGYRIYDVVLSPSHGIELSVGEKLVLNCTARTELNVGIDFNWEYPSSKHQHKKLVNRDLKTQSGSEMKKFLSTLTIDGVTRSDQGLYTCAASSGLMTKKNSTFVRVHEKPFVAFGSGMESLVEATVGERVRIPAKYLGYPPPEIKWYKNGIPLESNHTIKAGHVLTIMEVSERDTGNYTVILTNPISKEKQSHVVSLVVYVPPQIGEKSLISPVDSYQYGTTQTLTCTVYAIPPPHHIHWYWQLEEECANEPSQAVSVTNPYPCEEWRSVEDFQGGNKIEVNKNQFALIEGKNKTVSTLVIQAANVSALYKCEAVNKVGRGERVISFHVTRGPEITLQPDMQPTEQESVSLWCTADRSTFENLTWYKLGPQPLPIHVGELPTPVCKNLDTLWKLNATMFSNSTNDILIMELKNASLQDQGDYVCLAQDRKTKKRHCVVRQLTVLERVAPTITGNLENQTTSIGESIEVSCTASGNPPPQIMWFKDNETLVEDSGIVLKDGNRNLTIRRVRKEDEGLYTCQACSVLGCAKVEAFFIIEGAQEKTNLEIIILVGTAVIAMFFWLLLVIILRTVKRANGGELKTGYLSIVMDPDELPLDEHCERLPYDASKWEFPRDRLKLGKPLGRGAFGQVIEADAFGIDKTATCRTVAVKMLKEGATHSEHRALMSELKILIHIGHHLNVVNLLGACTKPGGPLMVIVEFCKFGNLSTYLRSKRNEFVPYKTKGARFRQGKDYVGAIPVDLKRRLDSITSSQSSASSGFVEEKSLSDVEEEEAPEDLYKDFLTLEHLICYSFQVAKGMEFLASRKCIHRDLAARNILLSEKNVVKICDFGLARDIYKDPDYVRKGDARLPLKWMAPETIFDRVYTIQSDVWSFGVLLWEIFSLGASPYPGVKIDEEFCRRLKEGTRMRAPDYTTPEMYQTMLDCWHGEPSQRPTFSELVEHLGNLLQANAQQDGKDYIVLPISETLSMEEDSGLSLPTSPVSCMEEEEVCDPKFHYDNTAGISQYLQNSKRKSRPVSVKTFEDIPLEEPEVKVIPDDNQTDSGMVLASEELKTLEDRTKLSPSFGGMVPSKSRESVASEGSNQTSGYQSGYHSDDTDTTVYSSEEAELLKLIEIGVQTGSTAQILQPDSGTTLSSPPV
Sequence of GSK-3β (P49841 whole entry): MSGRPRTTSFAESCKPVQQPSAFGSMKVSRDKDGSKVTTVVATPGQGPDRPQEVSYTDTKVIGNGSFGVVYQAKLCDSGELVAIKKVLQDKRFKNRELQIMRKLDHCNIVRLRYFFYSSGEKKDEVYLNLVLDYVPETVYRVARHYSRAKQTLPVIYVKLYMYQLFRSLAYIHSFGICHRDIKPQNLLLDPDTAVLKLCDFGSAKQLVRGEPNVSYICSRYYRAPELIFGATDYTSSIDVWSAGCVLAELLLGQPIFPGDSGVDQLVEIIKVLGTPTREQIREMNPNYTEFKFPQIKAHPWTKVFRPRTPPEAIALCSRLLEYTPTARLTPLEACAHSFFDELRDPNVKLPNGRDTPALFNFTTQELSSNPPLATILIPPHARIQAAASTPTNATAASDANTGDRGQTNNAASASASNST

The term melting point denotes the temperature of the solid-liquid transition. As to `COc1cc(C2=C(c3cn(CCOC(=O)C(N)CC(C)C)c4ccc(F)cc34)C(=O)NC2=O)cc(OC)c1OC` (stereo not shown) (as salt: salt) [Ia, 2-(3-(2,5-Dioxo-4-(3,4,5-trimethoxyphenyl)-2,5-dihydro-1H-pyrrol-3-yl)-5-fluoro-1H-indol-1-yl)-ethyl-2-amino-4-methylpentanoate], the melting point is 180 °C.
In the case of `COc1cc(C2=C(c3cn(CCOC(=O)C(N)CC(C)C)c4ccccc34)C(=O)NC2=O)cc(OC)c1OC` (stereo not shown) [IIa, reference compound], the “time until largely metabolized” value in data set [1] is on record as 2 h.
For orientation: IC50 means the concentration that inhibits the measured activity by half. Read a low IC50 as higher potency. `COc1cc(C2=C(c3cn(CCCO)c4ccccc34)C(=O)NC2=O)cc(OC)c1OC` [IIe] had an IC50 at GSK-3β of 2 nM.
Regarding `COc1cc(C2=C(c3cn(CCOC(=O)C(N)CC(C)C)c4ccc(F)cc34)C(=O)NC2=O)cc(OC)c1OC` (stereo not shown) [Ia, 2-(3-(2,5-Dioxo-4-(3,4,5-trimethoxyphenyl)-2,5-dihydro-1H-pyrrol-3-yl)-5-fluoro-1H-indol-1-yl)-ethyl-2-amino-4-methylpentanoate], the “time until largely metabolized” value in data set [1] came out at 1 h.
For the molecule `COc1cc(C2=C(c3cn(CCO)c4ccc(F)cc34)C(=O)NC2=O)cc(OC)c1OC` [Ib, 3-(5-fluoro-1-(2-hydroxyethyl)-1H-indol-3-yl)-4-(3,4,5-trimethoxyphenyl)-maleimide], the IC50 at VEGFR-2 was found to be 79 nM; against FLT-3, 66 nM.
Molecule `COc1cc(C2=C(c3cn(CCO)c4ccc(F)cc34)C(=O)NC2=O)cc(OC)c1O` [Ic, 3-(5-fluoro-1-(2-hydroxyethyl)-1H-indol-3-yl)-4-(4-hydroxy-3,5-dimethoxyphenyl)-maleimide] yielded a melting point of 233 °C.
For the molecule `COc1cc(C2=C(c3c[nH]c4ccc(F)cc34)C(=O)NC2=O)cc(OC)c1O` [Id, 3-(5-fluoro-1H-indol-3-yl)-4-(4-hydroxy-3,5-dimethoxyphenyl)-maleimide], in data set [2], the “antiproliferative activity (viability)” value is “higher activity as compared to (IId)”.
For the molecule `COc1cc(C2=C(c3cn(CCCO)c4ccc(F)cc34)C(=O)NC2=O)cc(OC)c1OC` [If, 3-(5-fluoro-1-(3-hydroxypropyl)-1H-indol-3-yl)-4-(3,4,5-trimethoxyphenyl)-maleimide], the values for the half-maximal inhibitory concentration (IC50) on VEGFR-2 and against FLT-3 were 168 nM and 84 nM, respectively.
